Test results: BigSolDB 2.1

c1ccc2c(c1)ccc1ccccc12
solubility (mole fraction)
Conditions	293 K	303 K	313 K	323 K
in 2,2,4-trimethylpentane	0.019	0.036	0.0874	0.138
in n-heptane	0.0154	0.0247	0.036	0.0519
in toluene	0.461	0.499	0.577	0.604
